Measurements reported in PubChem BioAssay (NCI).
Where “and” joins values, the source holds several entries; their conditions need not be identical. Equal values may be shown once.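 Exposure lasted 48 hours, with cells grown in 96-well plates and compounds tested at five concentrations. The concentration for 50% growth inhibition is given as GI50. TGI denotes the concentration required for complete inhibition of growth.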

Assays:
Test in all cases: NCI tumour cell line growth inhibition, 48 h
ACHN renal = tested on: ACHN renal
CCRF-CEM leukemia = tested on: CCRF-CEM leukemia
SK-MEL-5 melanoma = tested on: SK-MEL-5 melanoma
NCI-H460 lung = tested on: NCI-H460 lung
IGROV1 ovarian = tested on: IGROV1 ovarian
PC-3 prostate = tested on: PC-3 prostate
SF-539 CNS = tested on: SF-539 CNS
HOP-62 NSCLC = tested on: HOP-62 NSCLC
MDA-MB-435 = tested on: MDA-MB-435
SK-MEL-2 melanoma = tested on: SK-MEL-2 melanoma

| SMILES | GI50 (ACHN renal) | TGI (ACHN renal) | TGI (CCRF-CEM leukemia) | GI50 (SK-MEL-5 melanoma) | TGI (SK-MEL-5 melanoma) | GI50 (NCI-H460 lung) | TGI (NCI-H460 lung) | GI50 (IGROV1 ovarian) | TGI (IGROV1 ovarian) | GI50 (PC-3 prostate) | TGI (PC-3 prostate) | GI50 (SF-539 CNS) | TGI (SF-539 CNS) | GI50 (HOP-62 NSCLC) | TGI (HOP-62 NSCLC) | GI50 (MDA-MB-435) | TGI (MDA-MB-435) | GI50 (SK-MEL-2 melanoma) | TGI (SK-MEL-2 melanoma) | GI50 (CCRF-CEM leukemia) |
| --- | --- | --- | --- | --- | --- | --- | --- | --- | --- | --- | --- | --- | --- | --- | --- | --- | --- | --- | --- | --- |
| COc1cc(N2CCC(N(C)C)CC2)ccc1Nc1ncc(Cl)c(Nc2ccccc2P(C)(C)=O)n1 | 0.972 µM | > 9.65 µM | > 100 µM | 4.34 µM and 2.72 µM | 17 µM and > 6.71 µM | 1.92 µM and 0.385 µM | 12.9 µM and > 3.67 µM | 0.687 µM and 0.181 µM | > 100 µM | 3.73 µM and 0.506 µM | > 96.6 µM | 1.15 µM and 0.511 µM | 2.97 µM and 2.49 µM | 0.384 µM and 0.232 µM | 4.72 µM and > 10 µM | 1.94 µM and 0.972 µM | > 87.6 µM | 1.14 µM and 0.728 µM | 4.16 µM and 2.99 µM |  |
| CC1(C)OC2C(CO)OC(n3ccc(=O)[nH]c3=O)C2O1 (centres undefined) |  | > 100 µM | > 100 µM |  | > 100 µM |  | > 100 µM |  | > 100 µM |  | > 100 µM |  | > 100 µM |  | > 100 µM |  | > 100 µM |  | > 100 µM |  |
| O=C(Nc1ccccc1Cl)c1cnc2ccc(C3CCNCC3)cn12 | 1.02 µM | > 46.5 µM | > 100 µM | 13 µM | 26.6 µM | > 87.3 µM | > 100 µM | 0.626 µM | 14.6 µM | 14.3 µM | > 100 µM | 4.94 µM | > 100 µM | 16.8 µM | > 100 µM | 32.6 µM | > 100 µM | 42.3 µM | > 94 µM | > 100 µM |
| Nc1nc(-n2cccn2)nc(-n2cccn2)c1Br | > 100 µM | > 100 µM | > 100 µM | > 100 µM | > 100 µM | > 100 µM | > 100 µM | > 100 µM | > 100 µM | > 100 µM | > 100 µM | > 100 µM | > 100 µM | > 100 µM | > 100 µM | > 100 µM | > 100 µM | > 100 µM | > 100 µM | > 100 µM |
| COc1ccc(NC2=C(Sc3nc(C)cc(C)n3)C(=O)N(Cc3ccccc3)C2=O)cc1Cl | > 160 µM | > 160 µM | > 160 µM | 33.9 µM | > 160 µM | > 160 µM | > 160 µM | 108 µM | > 160 µM | 32.9 µM | > 160 µM | > 160 µM | > 160 µM | 84.6 µM | > 160 µM | 158 µM | > 160 µM | 138 µM | > 160 µM | 13.9 µM |
| CC[C@@]1(O)C(=O)NCc2c1cc1n(c2=O)Cc2cc3cc4c(cc3nc2-1)OCO4 | 0.398 µM | > 13.2 µM | 0.148 µM | 1.23 µM | 27.8 µM | 0.219 µM | 16.9 µM | 1.59 µM | 63.4 µM | 2.38 µM | > 100 µM | 0.374 µM | 4.57 µM | 0.235 µM | 20.4 µM | 2.11 µM | > 100 µM | 67.5 µM | > 100 µM | < 0.0128 µM |
| N#Cc1nc(-c2cccc(Br)c2)cc(-c2ccc(Nc3nc(N4CCCCC4)nc(N4CCCCC4)n3)cc2)c1N | 1.72 µM | 3.3 µM | > 100 µM | 1.76 µM | 3.18 µM | 1.85 µM | 3.8 µM |  |  | 1.94 µM | 7.11 µM | 1.74 µM | 3.14 µM | 2.64 µM | 8.76 µM | 2.35 µM | 6.64 µM | 2.09 µM | 4.61 µM | 0.587 µM |
| O=C(O)CC(Cc1ccc2c(c1)OCO2)C(=O)O (centres undefined) |  | > 100 µM | > 100 µM |  | > 100 µM |  | > 100 µM |  | > 100 µM |  | > 100 µM |  | > 100 µM |  | > 100 µM |  | > 100 µM |  | > 100 µM |  |
| Nc1cc(N)c2nc(-c3ccccc3)c(Nc3ccc(F)cc3)nc2c1 | 10.3 µM | 22.5 µM |  | 14.4 µM | 33 µM | 26.4 µM | > 100 µM | 16.6 µM | > 100 µM | 11.7 µM | > 100 µM | 11 µM | 24.6 µM | 37.8 µM | > 100 µM | 7.34 µM | 20.8 µM | 29.8 µM | > 100 µM |  |
| COc1cc(C)cc2c1OC(c1ccccc1)CC2=O (centres undefined) | > 100 µM | > 100 µM | > 100 µM | > 100 µM | > 100 µM | > 100 µM | > 100 µM | > 100 µM | > 100 µM | > 100 µM | > 100 µM | > 100 µM | > 100 µM | > 100 µM | > 100 µM | > 100 µM | > 100 µM | > 100 µM | > 100 µM | > 100 µM |
| c1ccc(-c2nc(Nc3ccc(-c4nc5ccccc5[nH]4)cc3)nc(N3CCOCC3)n2)cc1 | 1.25 µM | 2.74 µM | 3.12 µM | 1.69 µM | 3.15 µM | 0.822 µM | 2.46 µM |  |  | 1.8 µM | 3.64 µM | 1.42 µM | 2.94 µM | 1.73 µM | 3.52 µM | 1.76 µM | 3.28 µM | 1.97 µM | 3.59 µM | 0.545 µM |
| COc1n[n+]([O-])c(C)cc1[N+](=O)[O-] | 5.14 µM | 18.1 µM |  | 11.3 µM | 24.5 µM | 3.05 µM | 16.4 µM | 12.1 µM | 24.8 µM | 15.9 µM | 32.6 µM | 19.5 µM | 35.4 µM | 16.6 µM | 31.5 µM | 16.2 µM | 33.8 µM | 11.2 µM | 24.5 µM |  |
| O=c1c2cc(Br)ccc2oc2ccc(Br)cc12 |  | > 100 µM | > 100 µM |  | > 100 µM |  | > 100 µM |  | > 100 µM |  | > 100 µM |  | > 100 µM |  |  |  | > 100 µM |  | > 100 µM |  |
| CC1CCC2(OC1)OC1CC3C4CC=C5CC(OC6OC(CO)C(OC7OC(C)C(OC8OC(C)C(O)C(O)C8O)C(O)C7O)C(O)C6OC6OC(C)C(O)C(O)C6O)CCC5(C)C4CCC3(C)C1C2C (centres undefined) |  | 2.79 µM |  |  | 3.06 µM |  | 3.25 µM |  | 2.59 µM |  | 2.08 µM |  | 1.52 µM |  | > 100 µM |  | 1.18 µM |  | 2.5 µM |  |
